US7939623B2, “Composition containing flavan compound” (Toyo Shinyaku Co., Ltd., priority 2004, dated 2011)

Assay: Evaluation for coagulation-precipitation of flavan compounds and proteins (peptides), Reference Example
Type: physicochemical
Design: key: +: The precipitation was remarkably observed; ±: The precipitation was slightly observed; −: Not observed
Details: room temperature, one week
Description: Then, an aqueous solution of each of the pine bark extract, the proanthocyanidin dry powder, and epigallocatechin (produced by Roche Vitamins Japan K.K.) was prepared such that a final concentration was 0.2 wt %, as a first liquid. Separately, collagen (having an average molecular weight of 300 thousands: produced by KOKEN CO., LTD), Nippi Peptide PA-100 (having an average molecular weight of 10,000: produced by Nippi, incorporated), Collagen peptide DS (having an average molecular weight of 7,000: produced by Kyowa. […] At room temperature, 1 mL of first liquid and 1 mL of second liquid were mixed. The resultant liquid mixture was allowed to stand at room temperature for one week, and it was visually observed whether or not precipitation or suspension was caused in the liquid mixture.

[1] = second liquid: collagen average MW 300,000
[2] = second liquid: collagen peptide average MW 1,000
[3] = second liquid: collagen peptide average MW 3,000
[4] = second liquid: collagen peptide average MW 5,000
[5] = second liquid: collagen peptide average MW 7,000
[6] = second liquid: collagen peptide average MW 10,000

Precipitation (0.2 wt % first liquid 1 mL + 1 mL 10.0 wt % second liquid: glycine (MW 75), visual): −
Precipitation [1]: +
Suspension [1]: +
Precipitation [2]: −
Suspension [2]: −
Precipitation [3]: −
Suspension [3]: −
Precipitation [4]: −
Suspension [4]: −
Precipitation [5]: −
Suspension [5]: −
Precipitation [6]: ±
Suspension [6]: +
Suspension (second liquid: glycine (MW 75)): −
Substance: Epigallocatechin gallate
